Molecules are shown by their SMILES.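 In this assay, cells in 96-well plates receive the compound at five concentrations for 48 hours. Endpoints are linearly interpolated between the surrounding concentrations. TGI denotes the concentration required for complete inhibition of growth.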 A value given as a limit tells only on which side of the number the result lay.

Some test systems named below: SF-268 CNS; SF-539 CNS; CAKI-1 renal; UO-31 renal; HT29 colon; HL-60(TB) leukemia; MDA-MB-435; MDA-MB-231 breast; OVCAR-5 ovarian; HCC-2998 colon.
Common to all, as to assay: NCI-60 cell line screen, 48 h

For the compound `Cc1ccc2oc3c(ccc(=O)n3C)c(=O)c2c1`, the TGI in the assay on SF-268 CNS, with SF-539 CNS, in the assay on CAKI-1 renal, with UO-31 renal, with HT29 colon and in the assay with HL-60(TB) leukemia was greater than 100 µM in each case. The TGI with MDA-MB-435, in the assay with MDA-MB-231 breast, in the assay on OVCAR-5 ovarian and in the assay on HCC-2998 colon was greater than 100 µM throughout.
On to `CC(C)CCCC(C)[C@H]1CCC2[C@@H]3CCC4Cc5nc6c(nc5C[C@]4(C)C3CC[C@@]21C)CC1CC[C@@H]2C(CC[C@@]3(C)C2CC[C@@H]3O)[C@@]1(C)C6` (stereo partly drawn), for which the TGI with SF-268 CNS, in the assay on SF-539 CNS, with UO-31 renal, in the assay on HT29 colon, in the assay on HL-60(TB) leukemia and with MDA-MB-435 was greater than 100 µM in each case. The TGI in the assay on MDA-MB-231 breast and in the assay on OVCAR-5 ovarian was greater than 100 µM throughout.
Take `CC(=O)c1sc2c(c1O)c(=O)n(-c1ccccc1)c(=S)n2-c1ccccc1`: the TGI in the assay with SF-268 CNS, in the assay with UO-31 renal, in the assay with HT29 colon, with HL-60(TB) leukemia, with MDA-MB-435 and in the assay with MDA-MB-231 breast was greater than 100 µM throughout. In addition, the TGI with OVCAR-5 ovarian and in the assay with HCC-2998 colon was greater than 100 µM throughout.
With `Cc1ccc(C=C(C(=O)O)C(=O)O)o1`, the TGI in the assay with SF-268 CNS, in the assay on SF-539 CNS, in the assay on CAKI-1 renal, with UO-31 renal, in the assay on HT29 colon and in the assay with HL-60(TB) leukemia was greater than 100 µM in each case. The TGI with MDA-MB-435, with MDA-MB-231 breast, in the assay on OVCAR-5 ovarian and in the assay on HCC-2998 colon was greater than 100 µM in each case.
Turning to `COc1cccc(N2C(=O)C3CC(CC(C)(C)C)c4c([nH]c5ccccc45)C3C2=O)c1` (stereo not drawn), the TGI in the assay on SF-268 CNS was greater than 10 µM; with SF-539 CNS, 8.42 µM; in the assay with CAKI-1 renal, greater than 10 µM; in the assay on HT29 colon, greater than 10 µM; with HL-60(TB) leukemia, greater than 10 µM; in the assay with MDA-MB-435, greater than 10 µM. Also, the TGI in the assay on MDA-MB-231 breast, in the assay with OVCAR-5 ovarian and in the assay with HCC-2998 colon was greater than 10 µM throughout.
With `Cc1cc(C)nc(NC(=S)Nc2ccc(Cl)cc2)c1`, the TGI in the assay with SF-268 CNS, in the assay on SF-539 CNS, in the assay on CAKI-1 renal, in the assay with UO-31 renal, in the assay on HT29 colon and in the assay with HL-60(TB) leukemia was greater than 100 µM in each case. Also, the TGI in the assay with MDA-MB-435, in the assay on MDA-MB-231 breast and in the assay on OVCAR-5 ovarian was greater than 100 µM in each case.
Consider `CC(C)=NNc1ncnc2nc[nH]c12`, for which the TGI in the assay with SF-268 CNS is greater than 100 µM; with SF-539 CNS, greater than 88.9 µM; in the assay on CAKI-1 renal it was greater than 100 µM; in the assay on UO-31 renal, greater than 87.9 µM; with HT29 colon it was greater than 100 µM; in the assay on HL-60(TB) leukemia it was greater than 72.5 µM. Besides, the TGI was greater than 100 µM in the assay on MDA-MB-435, greater than 94.3 µM with MDA-MB-231 breast, greater than 48.4 µM in the assay with OVCAR-5 ovarian and 32 µM in the assay with HCC-2998 colon.
On to `O/N=C1\CSc2ccccc2C1`, for which the TGI with SF-268 CNS, with SF-539 CNS, with CAKI-1 renal, with UO-31 renal, in the assay on HT29 colon and in the assay with HL-60(TB) leukemia was greater than 100 µM each time. Further, the TGI in the assay with MDA-MB-435, in the assay with MDA-MB-231 breast, in the assay with OVCAR-5 ovarian and in the assay with HCC-2998 colon was greater than 100 µM in each case.
Take `O=c1[nH]nc(Cc2ccccc2)n1C1CC1`: the TGI in the assay with SF-268 CNS, with SF-539 CNS, with CAKI-1 renal, in the assay on UO-31 renal, with HT29 colon and with HL-60(TB) leukemia was greater than 100 µM each time. Further, the TGI in the assay with MDA-MB-435, with MDA-MB-231 breast, in the assay with OVCAR-5 ovarian and in the assay with HCC-2998 colon was greater than 100 µM in each case.
In the case of `Cn1cnnc1SC(F)(F)c1nc2ccccc2o1`, the TGI in the assay on SF-268 CNS, in the assay with SF-539 CNS, in the assay with CAKI-1 renal, with UO-31 renal, with HT29 colon and with MDA-MB-435 was greater than 100 µM each time. In addition, the TGI in the assay on MDA-MB-231 breast, in the assay on OVCAR-5 ovarian and with HCC-2998 colon was greater than 100 µM throughout.
For `CC1=CC(=O)c2c(O)c3c(c(O)c2C1=O)C1C(O)C(C3=O)C23C(=O)c4c(O)c(C)cc(O)c4C(O)=C2C(=O)CC(O)C13` (stereo not drawn), the TGI in the assay on SF-268 CNS was 7.54 µM; in the assay on SF-539 CNS, 5.07 µM; in the assay with CAKI-1 renal, 3.57 µM; in the assay with HT29 colon, 7.05 µM; in the assay on HL-60(TB) leukemia it was greater than 100 µM; in the assay on MDA-MB-435 it was 2.81 µM. Besides, the values for the TGI in the assay on MDA-MB-231 breast, in the assay with OVCAR-5 ovarian and in the assay with HCC-2998 colon were 9.89 µM, 9.08 µM and 10.2 µM, respectively.
As for `O=C1NC2=NN=C(c3ccc(Br)cc3)CN2NC12c1ccccc1-c1ccccc12`, the TGI in the assay on SF-268 CNS, in the assay with SF-539 CNS, in the assay on CAKI-1 renal, in the assay with UO-31 renal, in the assay with HT29 colon and in the assay with MDA-MB-435 was greater than 100 µM throughout. Further, the TGI in the assay with MDA-MB-231 breast, in the assay on OVCAR-5 ovarian and in the assay with HCC-2998 colon was greater than 100 µM in each case.
Consider `N#C[C@H](C(=O)c1ccccc1F)c1nc2ccccc2[nH]1`, for which the TGI in the assay on SF-268 CNS, in the assay with SF-539 CNS, in the assay on CAKI-1 renal, in the assay with UO-31 renal, with HT29 colon and with MDA-MB-435 was greater than 100 µM each time. Also, the TGI in the assay with MDA-MB-231 breast, with OVCAR-5 ovarian and in the assay with HCC-2998 colon was greater than 100 µM each time.
`O=S(=O)(O)c1ccc2c(N=Nc3c(O)ccc4ccccc34)cccc2c1`: the TGI in the assay on SF-268 CNS, with SF-539 CNS, in the assay with CAKI-1 renal, in the assay on UO-31 renal, in the assay on HT29 colon and with HL-60(TB) leukemia was greater than 100 µM each time. Moreover, the TGI in the assay on MDA-MB-435, in the assay with MDA-MB-231 breast and with OVCAR-5 ovarian was greater than 100 µM in each case.
For `Nc1nc2c(c(=O)[nH]1)NC(CCNc1ccc(C(=O)O)cc1)CN2` (stereo not drawn), the TGI in the assay on SF-268 CNS, with SF-539 CNS, in the assay with CAKI-1 renal, in the assay on UO-31 renal, in the assay with HT29 colon and with HL-60(TB) leukemia was greater than 100 µM throughout. Further, the TGI in the assay on MDA-MB-435, with MDA-MB-231 breast and in the assay with OVCAR-5 ovarian was greater than 100 µM throughout.
